Test results reported in article PMC4893628, “Chalcone-based Selective Inhibitors of a C4 Plant Key Enzyme as Novel Potential Herbicides” (Scientific Reports, 2016).
Like-named read-outs stand apart in the source and are kept apart here.

Experiments:
Format in all cases: cell-based
[1] = tested on: Pseudomonas putida KT2440; experiment: Bacterial growth in microscale cultivation, P. putida; details: relative to control; for activity at 8 µM / activity at 80 µM / activity at 400 µM: Pseudomonas putida
Protocol: (§1) The following bacteria were cultivated in the presence of trans-chalcone derived inhibitors: Corynebacterium glutamicum ATCC13032[43], Escherichia coli K-12 MG1655[44], Pseudomonas putida KT2440[45], and Bacillus subtilis 168[46]. The growth of these bacteria was monitored in flower-well plates shaken at 1200 rpm as backscatter at 620 nm (gain 20) using a BioLector® microscale cultivation system (m2p labs, Baesweiler, Germany). For further experimental details please refer to the Supplementary Information.
(§2) medium or the appropriate minimal medium and shaken at 140 rpm overnight. For inoculation of
(§3) the main culture, cells equivalent to an optical density at 600 nm of 0.5 (C. glutamicum, E. coli,
(§4) and P. putida) or 0.25 (B. subtilis) in 800 µL medium were washed and resuspended in fresh
(§5) media. Inhibitor substances were dissolved in DMSO and added to the media to a final
(§6) Since the least polar trans-chalcone and 2’-hydroxychalcone precipitated in the growth media at
(§7) the highest concentrations, the maximal concentration of these compounds was reduced to 400
(§8) µM and 100 µM, respectively. The final backscatter at 620 nm, the growth rate (h-1), and the
(§9) duration of the lag phase of all cultures were determined in a BioLector microscale cultivation
(§10) system in comparison to negative controls supplemented with the solvent DMSO. A longer lag

[2] = tested on: Corynebacterium glutamicum ATCC13032; experiment: Bacterial growth in microscale cultivation, C. glutamicum; details: for activity at 8 µM / activity at 80 µM / activity at 400 µM / activity at 160 µM: Corynebacterium glutamicum; for activity at 8 µM / activity at 80 µM / activity at 400 µM / activity at 160 µM / Lag Phase: relative to control
Protocol: as §1, §2, §3, §4, §5, §6, §7, §8, §9, §10

[3] = tested on: Escherichia coli K-12 MG1655; experiment: Bacterial growth in microscale cultivation, E. coli; details: relative to control; for activity at 8 µM / activity at 80 µM / activity at 800 µM: Escherichia coli
Protocol: as §1, §2, §3, §4, §5, §6, §7, §8, §9, §10

Bacillus subtilis 168 = experiment: Bacterial growth in microscale cultivation, B. subtilis; details: for activity at 8 µM / activity at 80 µM / activity at 800 µM / activity at 160 µM / Lag Phase: relative to control
Protocol: as §1, §2, §3, §4, §5, §6, §7, §8, §9, §10

[4] = Minimal medium, highest concentration tested (10× IC50) if not stated otherwise

O=C(/C=C/c1ccccc1)c1ccccc1 [Compound 1, trans-Chalcone]
activity at 8 µM ([1]; KT2440, complex medium, 8 µM, read-out: Final Backscatter): 95.3%
activity at 8 µM ([1]; KT2440, complex medium, 8 µM, read-out: Growth rate): 98.4%
activity at 80 µM ([1]; KT2440, complex medium, 80 µM, read-out: Final Backscatter): 96.7%
activity at 80 µM ([1]; KT2440, complex medium, 80 µM, read-out: Growth rate): 100%
activity at 400 µM ([1]; KT2440, complex medium, 400 µM, read-out: Final Backscatter): 97.3%
activity at 400 µM ([1]; KT2440, complex medium, 400 µM, read-out: Growth rate): 103%
activity at 8 µM ([1]; KT2440, minimal medium, 8 µM, read-out: Final Backscatter): 94.4%
activity at 8 µM ([1]; KT2440, minimal medium, 8 µM, read-out: Growth rate): 112%
activity at 80 µM ([1]; KT2440, minimal medium, 80 µM, read-out: Final Backscatter): 94.2%
activity at 80 µM ([1]; KT2440, minimal medium, 80 µM, read-out: Growth rate): 113%
activity at 400 µM ([1]; KT2440, minimal medium, 400 µM, read-out: Final Backscatter): 100%
activity at 400 µM ([1]; KT2440, minimal medium, 400 µM, read-out: Growth rate): 119%
Lag Phase ([1]; complex medium, 8 µM): 100,6%
Lag Phase ([1]; complex medium, 80 µM): 101,8%
Lag Phase ([1]; complex medium, 400 µM): 103,0%
Lag Phase ([1]; minimal medium, 8 µM): 98,9%
Lag Phase ([1]; minimal medium, 80 µM): 99,3%
Lag Phase ([1]; minimal medium, 400 µM): 98,1%
activity at 8 µM ([2]; ATCC13032, complex medium, 8 µM, read-out: Final Backscatter): 98.7%
activity at 8 µM ([2]; ATCC13032, complex medium, 8 µM, read-out: Growth rate): 105%
activity at 80 µM ([2]; ATCC13032, complex medium, 80 µM, read-out: Final Backscatter): 104%
activity at 80 µM ([2]; ATCC13032, complex medium, 80 µM, read-out: Growth rate): 103%
activity at 400 µM ([2]; ATCC13032, complex medium, 400 µM, read-out: Final Backscatter): 106%
activity at 400 µM ([2]; ATCC13032, complex medium, 400 µM, read-out: Growth rate): 103%
activity at 8 µM ([2]; ATCC13032, minimal medium, 8 µM, read-out: Final Backscatter): 99.7%
activity at 8 µM ([2]; ATCC13032, minimal medium, 8 µM, read-out: Growth rate): 99.3%
activity at 80 µM ([2]; ATCC13032, minimal medium, 80 µM, read-out: Final Backscatter): 97%
activity at 80 µM ([2]; ATCC13032, minimal medium, 80 µM, read-out: Growth rate): 97.1%
activity at 160 µM ([2]; ATCC13032, minimal medium, 160 µM, read-out: Final Backscatter): 98.3%
activity at 160 µM ([2]; ATCC13032, minimal medium, 160 µM, read-out: Growth rate): 92.5%
activity at 400 µM ([2]; ATCC13032, minimal medium, 400 µM, read-out: Final Backscatter): 99.5%
activity at 400 µM ([2]; ATCC13032, minimal medium, 400 µM, read-out: Growth rate): 87.5%
Influence on bacterial growth [2, 4]: μ↓ (5× IC50)
Lag Phase ([2]; complex medium, 8 µM): 100,0%
Lag Phase ([2]; complex medium, 80 µM): 99,5%
Lag Phase ([2]; complex medium, 400 µM): 103,7%
Lag Phase ([2]; minimal medium, 8 µM): 100,0%
Lag Phase ([2]; minimal medium, 80 µM): 102,3%
Lag Phase ([2]; minimal medium, 160 µM): 109,9%
Lag Phase ([2]; minimal medium, 400 µM): 113,6%
activity at 8 µM ([3]; MG1655, complex medium, 8 µM, read-out: Final Backscatter): 99%
activity at 8 µM ([3]; MG1655, complex medium, 8 µM, read-out: Growth rate): 105%
activity at 80 µM ([3]; MG1655, complex medium, 80 µM, read-out: Final Backscatter): 97.4%
activity at 80 µM ([3]; MG1655, complex medium, 80 µM, read-out: Growth rate): 109%
activity at 800 µM ([3]; MG1655, complex medium, 800 µM, read-out: Final Backscatter): 108%
activity at 800 µM ([3]; MG1655, complex medium, 800 µM, read-out: Growth rate): 94.7%
activity at 8 µM ([3]; MG1655, minimal medium, 8 µM, read-out: Final Backscatter): 100%
activity at 8 µM ([3]; MG1655, minimal medium, 8 µM, read-out: Growth rate): 97.5%
activity at 80 µM ([3]; MG1655, minimal medium, 80 µM, read-out: Final Backscatter): 95.1%
activity at 80 µM ([3]; MG1655, minimal medium, 80 µM, read-out: Growth rate): 104%
activity at 800 µM ([3]; MG1655, minimal medium, 800 µM, read-out: Final Backscatter): 103%
activity at 800 µM ([3]; MG1655, minimal medium, 800 µM, read-out: Growth rate): 107%
Lag Phase ([3]; complex medium, 8 µM): 102,4%
Lag Phase ([3]; complex medium, 80 µM): 102,4%
Lag Phase ([3]; complex medium, 800 µM): 101,2%
Lag Phase ([3]; minimal medium, 8 µM): 99,1%
Lag Phase ([3]; minimal medium, 80 µM): 101,8%
Lag Phase ([3]; minimal medium, 800 µM): 97,8%
activity at 8 µM (Bacillus subtilis 168; Bacillus subtilis, 168, complex medium, 8 µM, read-out: Final Backscatter): 95.4%
activity at 8 µM (Bacillus subtilis 168; Bacillus subtilis, 168, complex medium, 8 µM, read-out: Growth rate): 115%
activity at 80 µM (Bacillus subtilis 168; Bacillus subtilis, 168, complex medium, 80 µM, read-out: Final Backscatter): 99%
activity at 80 µM (Bacillus subtilis 168; Bacillus subtilis, 168, complex medium, 80 µM, read-out: Growth rate): 119%
activity at 800 µM (Bacillus subtilis 168; Bacillus subtilis, 168, complex medium, 800 µM, read-out: Final Backscatter): 103%
activity at 800 µM (Bacillus subtilis 168; Bacillus subtilis, 168, complex medium, 800 µM, read-out: Growth rate): 130%
activity at 8 µM (Bacillus subtilis 168; Bacillus subtilis, 168, minimal medium, 8 µM, read-out: Final Backscatter): 89.6%
activity at 8 µM (Bacillus subtilis 168; Bacillus subtilis, 168, minimal medium, 8 µM, read-out: Growth rate): 118%
activity at 80 µM (Bacillus subtilis 168; Bacillus subtilis, 168, minimal medium, 80 µM, read-out: Final Backscatter): 88.8%
activity at 80 µM (Bacillus subtilis 168; Bacillus subtilis, 168, minimal medium, 80 µM, read-out: Growth rate): 105%
activity at 160 µM (Bacillus subtilis 168; Bacillus subtilis, 168, minimal medium, 160 µM, read-out: Final Backscatter): 89.5%
activity at 160 µM (Bacillus subtilis 168; Bacillus subtilis, 168, minimal medium, 160 µM, read-out: Growth rate): 97.3%
activity at 800 µM (Bacillus subtilis 168; Bacillus subtilis, 168, minimal medium, 800 µM, read-out: Final Backscatter): 83.6%
activity at 800 µM (Bacillus subtilis 168; Bacillus subtilis, 168, minimal medium, 800 µM, read-out: Growth rate): 93.3%
Influence on bacterial growth (Bacillus subtilis 168; [4]): lag↑ (2× IC50)
Lag Phase (Bacillus subtilis 168; complex medium, 8 µM): 103,5%
Lag Phase (Bacillus subtilis 168; complex medium, 80 µM): 103,5%
Lag Phase (Bacillus subtilis 168; complex medium, 800 µM): 101,2%
Lag Phase (Bacillus subtilis 168; minimal medium, 8 µM): 111,6%
Lag Phase (Bacillus subtilis 168; minimal medium, 80 µM): 109,9%
Lag Phase (Bacillus subtilis 168; minimal medium, 160 µM): 110,6%
Lag Phase (Bacillus subtilis 168; minimal medium, 800 µM): 121,3%
